These results are taken from patent publication US7964624B1, “Inhibitors of serine proteases” (priority 2005, dated 2011).

In assay [1] the target is T1, full-length hepatitis C viral protein NS3•4A (Hepatitis C virus genotype 1a, UniProt P27958).
T1 construct: hexa-histidine (N); made in house; host or cells: Sf9 insect cells (baculovirus, pVL1392)
Put plainly: biochemical. Also noted: species or system HCV sub-type strain 1a.

Assay [2] has as its target T2, HCV NS3 protease domain (Hepatitis C virus genotype 1b, UniProt Q9WMX2).
T2 construct: The first 181 amino acids of NS3 (residues 1027-1207 of the viral polyprotein); hexa-histidine (C); made in house; host or cells: E. coli BL21/DE3 pLysS
Description: biochemical. Particulars: Enzyme Assay 1 (HCV NS3 Protease Domain Peptide Cleavage Assay) activity, apparent Ki class.

The mark [3] stands for this setting: Enzyme Assay 2 (HCV NS3 Peptide Cleavage Assay) activity, apparent Ki class.
[4] abbreviates: Enzyme Assay 2, HCV NS3 Peptide Cleavage Assay, apparent Ki.

Some results are limits rather than exact numbers.

Take `CCC[C@H](NC(=O)[C@@H]1C[C@]2(CC(c3ccc(C)c(Cl)c3)=NO2)CN1C(=O)[C@@H](NC(=O)CC1CCCCC1)C(C)(C)C)C(=O)C(=O)NC1CC1` [Compound 3]: the Ki in assay [1] (setting [3]) is under 100 nM; in assay [2] it was 100 to 500 nM.

As to `CC1(O)CCC(CC(=O)N[C@H](C(=O)N2C[C@@]3(CC(c4cccc(Cl)c4)=NO3)C[C@H]2C(=O)N[C@@H](CC2CC2)C(=O)C(N)=O)C(C)(C)C)CC1` (some centres unmarked) [Compound 5], the Ki in assay [1] (setting [3]) and in assay [2] was under 100 nM throughout.

Turning to `CCC[C@H](NC(=O)[C@@H]1C[C@]2(CC(c3cccc(Cl)c3)=NO2)CN1C(=O)[C@@H](NC(=O)CC1CCCCC1)C(C)(C)C)C(=O)C(=O)NC1Cc2ccccc2C1` [Compound 6], the Ki in assay [1] (setting [3]) and in assay [2] was over 500 nM each time.

For the molecule `CCC[C@H](NC(=O)[C@@H]1C[C@]2(CC(c3cccc(Cl)c3)=NO2)CN1C(=O)[C@@H](CC(=O)NCc1ccccc1)C(C)C)C(=O)C(=O)NC1CC1` [Compound 10], the Ki in assay [1] (setting [3]) and in assay [2] was over 500 nM throughout.

As to `CCC[C@H](NC(=O)[C@@H]1C[C@]2(CC(c3cccc(Cl)c3)=NO2)CN1C(=O)[C@@H](NC(C)=O)C(C)(C)C)C(=O)C(=O)NC1CC1` [Compound 12], the Ki in assay [1] (setting [3]) is under 100 nM; in assay [2] it was 100 to 500 nM.

For `CC(C)(C)[C@H](NC(=O)CC1CC2CCC1C2)C(=O)N1C[C@@]2(CC(c3cccc(Cl)c3)=NO2)C[C@H]1C(=O)N[C@@H](CC1CC1)C(=O)C(N)=O` (some centres unmarked) [Compound 13], the Ki in assay [1] (setting [3]) and in assay [2] was under 100 nM each time.

For `CCC[C@H](NC(=O)[C@@H]1C[C@]2(CC(c3cccc(Cl)c3)=NO2)CN1C(=O)[C@@H](NC(=O)CC1CCCCC1)C(C)(C)C)C(=O)C(=O)NCc1nc2ccccc2s1` [Compound 17], the Ki in assay [1] (setting [3]) is 100 to 500 nM; in assay [2] it was over 500 nM.

For `CC(C)(C)[C@H](NC(=O)CC1CCCCC1)C(=O)N1C[C@@]2(CC(c3cc(Cl)c4c(c3)CCO4)=NO2)C[C@H]1C(=O)NC(CC1CCC1)C(=O)C(=O)NC1CC1` (some centres unmarked) [Compound 18], the Ki in assay [1] (setting [3]) and in assay [2] was under 100 nM throughout.

Turning to `CCC[C@H](NC(=O)[C@@H]1C[C@]2(CC(c3cccc(Cl)c3)=NO2)CN1C(=O)[C@@H](NC(=O)CC12CCCCC1C2)C(C)(C)C)C(=O)C(=O)NC1CC1` (some centres unmarked) [Compound 19], the Ki is under 100 nM in assay [1] (setting [3]) and 100 to 500 nM in assay [2].

On to `CCC[C@H](NC(=O)[C@@H]1C[C@]2(CC(c3cccc(Cl)c3)=NO2)CN1C(=O)[C@@H](CC(=O)NC1CCCCC1)C(C)C)C(=O)C(=O)NC1CC1` [Compound 21], for which the Ki in assay [1] (setting [3]) and in assay [2] was over 500 nM throughout.

`CC(C)(C)[C@H](NC(=O)CC1CCCCC1)C(=O)N1C[C@@]2(CC(c3cccc(Cl)c3)=NO2)C[C@H]1C(=O)N[C@@H](CC1CCC1)C(=O)C(=O)NC1CC1` [Compound 23]: the Ki in assay [1] (setting [3]) is 100 to 500 nM; in assay [2], under 100 nM.

Consider `CCC[C@H](NC(=O)[C@@H]1C[C@]2(CC(c3cccc(Cl)c3)=NO2)CN1C(=O)[C@@H](NC(=O)[C@@H]1CCCN1C(=O)c1ccccc1)C(C)(C)C)C(=O)C(=O)NC1CC1` [Compound 26], for which the results for the Ki in assay [1] (setting [3]) and in assay [2] were under 100 nM and 100 to 500 nM, respectively.

As to `CCC[C@H](NC(=O)[C@@H]1C[C@]2(CC(c3ccccc3C#N)=NO2)CN1C(=O)[C@@H](NC(=O)CC1CCCCC1)C(C)(C)C)C(=O)C(=O)NC1CC1` [Compound 28], the Ki in assay [1] (setting [3]) was 100 to 500 nM; in assay [2] it was over 500 nM.

Take `CCC[C@H](NC(=O)[C@@H]1C[C@]2(CC(c3cccc(Cl)c3)=NO2)CN1C(=O)[C@@H](NC(=O)CC1(C)CCCCC1)C(C)(C)C)C(=O)C(=O)NC1CC1` [Compound 29]: the Ki in assay [1] (setting [3]) and in assay [2] was 100 to 500 nM each time.

Turning to `CCC[C@H](NC(=O)[C@@H]1C[C@]2(CC(N3Cc4ccccc4C3)=NO2)CN1C(=O)[C@@H](NC(=O)OC1CCCC1)C(C)(C)C)C(=O)C(=O)NC1CC1` [Compound 964], the Ki in assay [1] (setting [4]) was in the range of 100 to 500 nM.

With `CNC(=O)C(=O)[C@H](CC1CC1)NC(=O)[C@@H]1C[C@]2(CC(N3Cc4ccccc4C3)=NO2)CN1C(=O)[C@@H](NC(=O)OC1CCCC1)C(C)(C)C` [Compound 965], the Ki in assay [1] (setting [4]) was 100 to 500 nM.

`CNC(=O)C(=O)[C@H](CC1CC1)NC(=O)[C@@H]1C[C@]2(CC(c3cccc(Cl)c3)=NO2)CN1C(=O)[C@@H](NC(=O)C1(c2ccccc2)CC1)C(C)(C)C` [Compound 966]: the Ki in assay [1] (setting [4]) is over 500 nM.

On to `[2H][C@@](CCC)(NC(=O)[C@@H]1C[C@]2(CC(c3cc(C)c(OC)c(C)c3)=NO2)CN1C(=O)[C@@H](NC(=O)CC1CCCCC1)C(C)(C)C)C(=O)C(=O)NC1CC1` [Compound 967], for which the Ki in assay [1] (setting [4]) is under 100 nM.

On to `CCC[C@H](NC(=O)[C@@H]1C[C@]2(CC(c3cc(Cl)ccc3OC)=NO2)CN1C(=O)[C@@H](NC(=O)[C@@H]1C[C@H]1c1ccccc1)C(C)(C)C)C(=O)C(=O)NC1CC1` [Compound 968], for which the Ki in assay [1] (setting [4]) was under 100 nM.

In the case of `CCC[C@H](NC(=O)[C@@H]1C[C@]2(CC(c3cc(Cl)ccc3OC)=NO2)CN1C(=O)[C@@H](NC(=O)[C@@H]1C[C@H]1c1ccccc1)C(C)(C)C)C(=O)C(=O)NC` [Compound 969], in assay [1] (setting [4]), the Ki is under 100 nM.

`CCNC(=O)C(=O)[C@H](CC1CC1)NC(=O)[C@@H]1C[C@]2(CC(c3cc(Cl)ccc3OC)=NO2)CN1C(=O)[C@@H](NC(=O)[C@@H]1C[C@H]1c1ccccc1)C(C)(C)C` [Compound 970]: in assay [1] (setting [4]), the Ki is under 100 nM.

In the case of `CCOc1cc(OC)c(C2=NO[C@]3(C2)C[C@@H](C(=O)N[C@@H](CC2CC2)C(=O)C(N)=O)N(C(=O)[C@@H](NC(=O)OC(C)(C)C)C(C)(C)C)C3)cc1Cl` [Compound 971], the Ki in assay [1] (setting [4]) was under 100 nM.

Take `CCOc1cc(OC)c(C2=NO[C@]3(C2)C[C@@H](C(=O)N[C@@H](CC2CC2)C(=O)C(N)=O)N(C(=O)[C@@H](NC(=O)CC2CCCCC2)C(C)(C)C)C3)cc1Cl` [Compound 972]: the Ki in assay [1] (setting [4]) is under 100 nM.

As to `CCOc1c(C)cc(C2=NO[C@]3(C2)C[C@@H](C(=O)N[C@@H](CC2CC2)C(=O)C(N)=O)N(C(=O)[C@@H](NC(=O)OC(C)(C)C)C(C)(C)C)C3)cc1C` [Compound 974], the Ki in assay [1] (setting [4]) is under 100 nM.

Take `CCOc1c(C)cc(C2=NO[C@]3(C2)C[C@@H](C(=O)N[C@@H](CC2CC2)C(=O)C(N)=O)N(C(=O)[C@@H](NC(=O)CC2CCCCC2)C(C)(C)C)C3)cc1C` [Compound 975]: the Ki in assay [1] (setting [4]) was under 100 nM.

`CCC[C@H](NC(=O)[C@@H]1C[C@]2(CC(c3cc(C)c(OCC)c(C)c3)=NO2)CN1C(=O)[C@@H](NC(=O)[C@H]1C[C@@H]1c1ccccn1)C(C)(C)C)C(=O)C(=O)NC1CC1` [Compound 980]: the Ki in assay [1] (setting [4]) is 100 to 500 nM.

For `CCC[C@H](NC(=O)[C@@H]1C[C@]2(CC(c3cc(C)c(OCC)c(C)c3)=NO2)CN1C(=O)[C@@H](NC(=O)[C@@H]1C[C@H]1c1ccccn1)C(C)(C)C)C(=O)C(=O)NC1CC1` [Compound 981], the Ki in assay [1] (setting [4]) was under 100 nM.

For the molecule `CCC[C@H](NC(=O)[C@@H]1C[C@]2(CC(c3cc(C)c(OCC)c(C)c3)=NO2)CN1C(=O)[C@@H](NC(=O)C1CC1c1ccncc1)C(C)(C)C)C(=O)C(=O)NC1CC1` (some centres unmarked) [Compound 982], the Ki in assay [1] (setting [4]) was in the range of 100 to 500 nM.

On to `CCC[C@H](NC(=O)[C@@H]1C[C@]2(CC(c3cc(C)c(OCC)c(C)c3)=NO2)CN1C(=O)[C@@H](NC(=O)[C@@H]1C[C@H]1C(C)C)C(C)(C)C)C(=O)C(=O)NC1CC1` [Compound 983], for which the Ki in assay [1] (setting [4]) is under 100 nM.

As for `CCC[C@H](NC(=O)[C@@H]1C[C@]2(CC(c3cc(C)c(OCC)c(C)c3)=NO2)CN1C(=O)[C@@H](NC(=O)[C@@H]1C[C@H]1C1CCCCC1)C(C)(C)C)C(=O)C(=O)NC1CC1` [Compound 984], the Ki in assay [1] (setting [4]) was under 100 nM.

In the case of `CCOc1c(C)cc(C2=NO[C@]3(C2)C[C@@H](C(=O)N[C@@H](CC2CC2)C(=O)C(=O)NC)N(C(=O)[C@@H](NC(=O)[C@@H]2C[C@H]2c2ccccc2OC)C(C)(C)C)C3)cc1C` [Compound 985], the Ki in assay [1] (setting [4]) is under 100 nM.

As to `CCOc1c(C)cc(C2=NO[C@]3(C2)C[C@@H](C(=O)N[C@@H](CC2CC2)C(=O)C(=O)NC)N(C(=O)[C@@H](NC(=O)[C@H]2C[C@@H]2c2ccccn2)C(C)(C)C)C3)cc1C` [Compound 986], in assay [1] (setting [4]), the Ki lay in the range of 100 to 500 nM.

As to `CCC[C@H](NC(=O)[C@@H]1C[C@]2(CC(c3cc(C)c(OCC)c(C)c3)=NO2)CN1C(=O)[C@@H](NC(=O)[C@@H]1C[C@H]1c1ccccc1OC)C(C)(C)C)C(=O)C(=O)NC` [Compound 991], the Ki in assay [1] (setting [4]) was under 100 nM.

Regarding `CCC[C@H](NC(=O)[C@@H]1C[C@]2(CC(c3cc(C)c(OCC)c(C)c3)=NO2)CN1C(=O)[C@@H](NC(=O)C1C[C@H]1C(C)C)C(C)(C)C)C(=O)C(=O)NC` (some centres unmarked) [Compound 992], the Ki in assay [1] (setting [4]) is under 100 nM.

Take `CCC[C@H](NC(=O)[C@@H]1C[C@]2(CC(c3cc(C)c(OCC)c(C)c3)=NO2)CN1C(=O)[C@@H](NC(=O)[C@@H]1C[C@H]1C1CCCCC1)C(C)(C)C)C(=O)C(=O)NC` [Compound 993]: the Ki in assay [1] (setting [4]) is under 100 nM.

Turning to `CCC[C@H](NC(=O)[C@@H]1C[C@]2(CC(c3cc(C)c(OCC)c(C)c3)=NO2)CN1C(=O)[C@@H](NC(=O)[C@@H]1C[C@H]1c1ccc(F)cc1)C(C)(C)C)C(=O)C(=O)NC1CC1` [Compound 994], in assay [1] (setting [4]), the Ki is under 100 nM.

Regarding `CCC[C@H](NC(=O)[C@@H]1C[C@]2(CC(c3cc(C)c(OCC)c(C)c3)=NO2)CN1C(=O)[C@@H](NC(=O)[C@@H]1C[C@H]1c1ccc(F)cc1)C(C)(C)C)C(=O)C(=O)NC` [Compound 995], in assay [1] (setting [4]), the Ki was under 100 nM.

Consider `CCC[C@H](NC(=O)[C@@H]1C[C@]2(CC(c3cc(C)c(OCC)c(C)c3)=NO2)CN1C(=O)[C@@H](NC(=O)[C@H]1C[C@@H]1c1ccc(F)cc1)C(C)(C)C)C(=O)C(=O)NC1CC1` [Compound 996], for which the Ki in assay [1] (setting [4]) was under 100 nM.

In the case of `CCC[C@H](NC(=O)[C@@H]1C[C@]2(CC(c3cc(C)c(OCC)c(C)c3)=NO2)CN1C(=O)[C@@H](NC(=O)[C@H]1C[C@@H]1c1ccc(F)cc1)C(C)(C)C)C(=O)C(=O)NC` [Compound 997], in assay [1] (setting [4]), the Ki was under 100 nM.
